{
  "source": "patent US20250221405A1",
  "about": "“ROOT NODULE FORMATION-PROMOTING COMPOSITION, AND ROOT HAIR FORMATION-PROMOTING COMPOSITION” (KANEKA CORPORATION, priority 2022, published 2025)",
  "format_in_all_cases": "in vivo, soybean",
  "key": {"soybeans (Fukuyutaka) [1]": {"test_system": "soybeans (Fukuyutaka)", "assay": "Experimental Example 2: soil irrigation with composition comprising rhizobium materials, number of root nodules", "experimental": "(§1) For each of the following treatment, to a mixture of rhizobium materials (rhizobium and azospirillum) mixed with water at a proportion of 10 g/L, SF, SL, or RL was added in the following amount to prepare a solution comprising the rhizobium materials and SF, SL, or RL (a composition for promoting root nodule formation).\nA 9 cm poly pot was filled with culture soil and seeded with three seeds of soybeans (Fukuyutaka) in each pot.\n(§2) After seeding, the seeds were cultivated in a greenhouse set at 28° C. during the day (14h) and 18° C. at night (10h).\n(§3) Seven days after the seeding, the soybeans in each pot were thinned to one plant, and each pot was irrigated with 4.3 ml of the composition for promoting root nodule formation (in the treatment T1, a mixture of rhizobium materials (rhizobium and azospirillum) mixed with water at a proportion of 10 g/L).\n(§4) Twenty-one days after the irrigation, the roots were washed with water so as not to remove root nodules, the culture soil was removed, and then, the root nodules formed on the roots were collected.\n(§5) After the seeding, each pot was fertilized with ½ Hoagland solution (50 mL) once a week. In addition, experiments were conducted on eight pots (eight plants) in each treatment.\n(§6) A plurality of experiments were conducted by changing the type of the composition for promoting root nodule formation and the like. Tables 2-1 and 2-2 show the date of seeding, the date of irrigating, the date of investigating the number of root nodules, the composition for promoting root nodule formation, and the investigation result of the number of root nodules. Note that the number of root nodules is indicated by a relative value with T1 taken as 100, with a numerical value in parentheses indicating the average number of root nodules actually measured (pieces/plant)."}, "soybeans (Fukuyutaka) [2]": {"test_system": "soybeans (Fukuyutaka)", "assay": "Experimental Example 4: soil irrigation with biosurfactant and/or KVP, root nodule number and weight, root weight", "conditions": "with rhizobium materials", "experimental": "as §1, with “treatments,” for “treatment,”\nA 9 cm poly pot was filled with sterilized fertilizer-free culture soil (Heiwa) and seeded three seeds of soybeans (Fukuyutaka) in each pot.\nas §2, §3, §4, §5\nas §6, with “4-1” for “2-1”, “4-2” for “2-2”, “Tl” for “T1”, “(pieces/plant). In addition, fresh root nodule weight means the weight of root nodules before drying on the day of collection and is indicated by a relative value with Tl taken as 100. Dried underground part weight means the weight of roots dried for 48 hours at 80° C. and indicated by a relative value with Tl taken as 100.” for “(pieces/plant).”"}, "soybeans (Fukuyutaka) [3]": {"test_system": "soybeans (Fukuyutaka)", "assay": "Experimental Example 3: seed coating with biosurfactant and/or KVP, number of root nodules", "conditions": "Table 3-1", "experimental": "A solution of SF, SL, or RL and/or KVP dissolved in water (a composition for promoting root nodule formation) as the following amount in each of the following treatments was prepared. The seeds of soybeans (Fukuyutaka) were coated using the solution in an amount of 800 μL/100 g seed to obtain coated seeds.\nA 9 cm poly pot was filled with culture soil and seeded with three coated seeds in each pot.\nAfter seeding, the coated seeds were cultivated in a greenhouse set at 28° C. during the day (14h) and 18° C. at night (10h).\nSeven days after the seeding, the soybeans in each pot were thinned to one plant, and each pot was irrigated with 4.3 mL of a mixture of rhizobium materials (rhizobium and azospirillum) mixed with water at a proportion of 10 g/L.\nas §4, §5\nas §6, with “3-1” for “2-1”, “3-2” for “2-2”, “amounts” for “date”, “SF, SL, or RL and/or KVP in” for “seeding, the date of irrigating, the date of investigating the number of root nodules,”, “formation” for “formation,”, “Tl” for “T1”"}, "[4]": {"conditions": "Table 2-1, irrigation 4.3 ml, diluted 100 times"}, "[5]": {"conditions": "Table 2-1, irrigation, diluted 500 times"}, "[6]": {"conditions": "Table 2-1, irrigation, diluted 1000 times"}, "[7]": {"conditions": "Table 4-1, single agent diluted 1000 times"}, "[8]": {"conditions": "Table 4-1, single agent diluted 5000 times"}, "[9]": {"conditions": "Table 4-1, single agent diluted 10000 times"}, "[10]": {"conditions": "seed coating SF 0.5 g/t seed (diluted 16000 times)"}, "[11]": {"conditions": "seed coating SF 5 g/t seed (diluted 1600 times)"}},
  "data": [
    {"substance": "surfactin Na [SF]", "values": [
      {"measurement": "Number of Root Nodules, average number actually measured", "setting": "soybeans (Fukuyutaka) [1]; [4]", "value": 15.9, "unit": "pieces/plant"},
      {"measurement": "Number of Root Nodules, relative value with T1 taken as 100", "setting": "soybeans (Fukuyutaka) [1]; [4]", "value": 109},
      {"measurement": "Number of Root Nodules, average number actually measured", "setting": "soybeans (Fukuyutaka) [1]; [5]", "value": 16.3, "unit": "pieces/plant"},
      {"measurement": "Number of Root Nodules, relative value with T1 taken as 100", "setting": "soybeans (Fukuyutaka) [1]; [5]", "value": 111},
      {"measurement": "Number of Root Nodules, average number actually measured", "setting": "soybeans (Fukuyutaka) [1]; [6]", "value": 16.9, "unit": "pieces/plant"},
      {"measurement": "Number of Root Nodules, relative value with T1 taken as 100", "setting": "soybeans (Fukuyutaka) [1]; [6]", "value": 115},
      {"measurement": "Dried Underground Part Weight, relative value with T1 taken as 100", "setting": "soybeans (Fukuyutaka) [2]; [7]", "value": 101},
      {"measurement": "Fresh Root Nodule Weight, relative value with T1 taken as 100", "setting": "soybeans (Fukuyutaka) [2]; [7]", "value": 124},
      {"measurement": "Number of Root Nodules, average number actually measured", "setting": "soybeans (Fukuyutaka) [2]; [7]", "value": 19.6, "unit": "pieces/plant"},
      {"measurement": "Number of Root Nodules, relative value with T1 taken as 100", "setting": "soybeans (Fukuyutaka) [2]; [7]", "value": 114},
      {"measurement": "Dried Underground Part Weight, relative value with T1 taken as 100", "setting": "soybeans (Fukuyutaka) [2]; [8]", "value": 103},
      {"measurement": "Fresh Root Nodule Weight, relative value with T1 taken as 100", "setting": "soybeans (Fukuyutaka) [2]; [8]", "value": 121},
      {"measurement": "Number of Root Nodules, average number actually measured", "setting": "soybeans (Fukuyutaka) [2]; [8]", "value": 19.0, "unit": "pieces/plant"},
      {"measurement": "Number of Root Nodules, relative value with T1 taken as 100", "setting": "soybeans (Fukuyutaka) [2]; [8]", "value": 110},
      {"measurement": "Dried Underground Part Weight, relative value with T1 taken as 100", "setting": "soybeans (Fukuyutaka) [2]; [9]", "value": 99},
      {"measurement": "Fresh Root Nodule Weight, relative value with T1 taken as 100", "setting": "soybeans (Fukuyutaka) [2]; [9]", "value": 107},
      {"measurement": "Number of Root Nodules, average number actually measured", "setting": "soybeans (Fukuyutaka) [2]; [9]", "value": 18.0, "unit": "pieces/plant"},
      {"measurement": "Number of Root Nodules, relative value with T1 taken as 100", "setting": "soybeans (Fukuyutaka) [2]; [9]", "value": 104},
      {"measurement": "Number of Root Nodules, average number actually measured", "setting": "soybeans (Fukuyutaka) [3]; [10]", "value": 25.3, "unit": "pieces/plant"},
      {"measurement": "Number of Root Nodules, relative value with T1 taken as 100", "setting": "soybeans (Fukuyutaka) [3]; [10]", "value": 109},
      {"measurement": "Number of Root Nodules, average number actually measured", "setting": "soybeans (Fukuyutaka) [3]; [11]", "value": 26.9, "unit": "pieces/plant"},
      {"measurement": "Number of Root Nodules, relative value with T1 taken as 100", "setting": "soybeans (Fukuyutaka) [3]; [11]", "value": 116}
    ]}
  ]
}
